Source: patent US7326407B2, “Amine, amide, sulphonamide and carbamate derivatives of benzalmalonic salts and photoprotective cosmetic compositions comprised thereof” (L'Oreal, priority 2003, dated 2008)
Structures can show the parent of a compound that is named as a salt.

Assay: UV absorption spectrum in water
Type: physicochemical
Details: for UV E1% / UV εmax: at λmax

Compound	UV λmax [nm]	UV E1%	UV εmax [L/mol/cm]
Nc1ccc(C=C(C(=O)O)C(=O)O)cc1 [Example 3, dipotassium salt of 2-(4-aminobenzylidene)malonic acid]	306	496	14000
Nc1ccc(C=C(C(=O)O)C(=O)O)cc1 [Example 2, disodium salt of 2-(4-aminobenzylidene)malonic acid]	305	670	16800
Nc1ccc(C=C(C(=O)O)C(=O)O)cc1 [Example 1, dipiperidinium salt of 2-(4-aminobenzylidene)malonic acid]	305	446	16800

Now from value to compound:

UV λmax [nm]	UV E1%	UV εmax [L/mol/cm]	Compound
292	422	14000	dipotassium salt of 2-(4-laurylamidobenzylidene)malonic acid [Example 5]
292	498	16200	CC(=O)Nc1ccc(C=C(C(=O)O)C(=O)O)cc1 [Example 4, dipotassium salt of 2-(4-acetamidobenzylidene)malonic acid]
